# Like-named read-outs stand apart in the source and are kept apart here.
# Legend:
# [1] = target: memapsin 2 (Homo sapiens, UniProt P56817); assay: Inhibition of memapsin 2 beta-secretase activity (fluorogenic substrate FS-2); assay type: biochemical; conditions: pH 4, 37° C., read-out: M2 Ki
# In short: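 Memapsin 2 pre-incubated with compound for 20 min at pH 4, 37° C. Reaction started with fluorogenic substrate FS-2, […], derived from Swedish-variant APP beta-secretase site; inhibition measured from fluorescence.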
# [2] = target: T1, memapsin 2 (Cricetulus griseus, UniProt G3IAK4); assay: Cellular Aβ IC50 determination (Aβ40 sandwich ELISA); assay type: cell-based, Chinese hamster; conditions: CHO cells over-expressing human APP695 with London and Swedish mutations, 24 h, read-out: M2 IC50
# T1 construct: endogenous in cells; host or cells: Chinese hamster ovary cells over-expressing human APP695 (London + Swedish)
# In short: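 CHO cells overexpressing human APP695 (London and Swedish mutations) treated 48 h post-seeding with serially diluted compounds (top near 4 μM, 0.4% DMSO), 24 h at 37° C, 5% CO2. Medium Aβ40 measured by sandwich ELISA; levels relative to control fitted to 4-parameter IC50 model.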
# [3] = target: cathepsin D (Homo sapiens, UniProt P07339); assay: Inhibition of cathepsin D activity (MALDI-TOF, substrate ELDLAVEFWHDR); assay type: biochemical
# Protocol: [The source words this procedure for another target and reports this target under the same test.] (§1) A substrate peptide NH3-ELDLAVEFWHDR-CO2 (SEQ ID NO.: 1) was dissolved at 2 mg/mL in 10% glacial acetic acid and diluted into 0.009M NaOH to obtain μM concentration at pH 4.1. After equilibration at 37 degrees C., the reactions were initiated by the addition of an aliquot of memapsin 2. Aliquots were removed at time intervals, and combined with an equal volume of MALDI-TOF matrix (α-hydroxycinnamic acid in acetone, 20 mg/mL) and immediately spotted in duplicate onto a stainless-steel MALDI sample plate. MALDI-TOF mass spectrometry was performed on a PE Biosystems Voyager DE. The instrument was operated at 25,000 accelerating volts in positive mode with a 150 ns delay. Ions with a mass-to-charge ratio (m/z) were detected in the range of 650-2000 atomic mass units. Data were analyzed by the Voyager Data Explorer module to obtain ion intensity data for mass species of substrates and corresponding products in a given mixture. Relative product formation was calculated as the ratio of signal intensity of the product to the sum of signal intensities of both product and the corresponding substrate. Relative product formed per unit time was obtained from non-linear regression analysis of the data representing the initial 15% formation of product using the model:
# where k was the relative hydrolytic rate constant and T was time in seconds. Initial rates were expressed relative to uninhibited controls and fit to a tight-binding model of competitive inhibition as above.
# [4] = target: T2, memapsin 1 (Homo sapiens, UniProt Q9Y5Z0); assay: Inhibition of memapsin 1 beta-secretase activity (MALDI-TOF, substrate ELDLAVEFWHDR); assay type: biochemical; conditions: read-out: M1 Ki
# T2 sequence (Q9Y5Z0 63-518): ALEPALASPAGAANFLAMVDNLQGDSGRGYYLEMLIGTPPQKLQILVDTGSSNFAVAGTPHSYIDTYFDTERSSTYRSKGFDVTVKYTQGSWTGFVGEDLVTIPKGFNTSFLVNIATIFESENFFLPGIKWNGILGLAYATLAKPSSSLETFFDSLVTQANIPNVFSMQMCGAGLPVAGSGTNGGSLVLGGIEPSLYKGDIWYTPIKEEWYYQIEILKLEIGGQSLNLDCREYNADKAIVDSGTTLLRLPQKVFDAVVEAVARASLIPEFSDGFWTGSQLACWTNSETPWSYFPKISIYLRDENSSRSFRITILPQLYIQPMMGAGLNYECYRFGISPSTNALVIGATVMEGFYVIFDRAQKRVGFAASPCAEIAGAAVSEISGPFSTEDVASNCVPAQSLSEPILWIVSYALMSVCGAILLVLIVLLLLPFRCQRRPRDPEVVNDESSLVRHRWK
# Protocol: [The source words this procedure for another target and reports this target under the same test.] as §1
# where k was the relative hydrolytic rate constant and T was time in seconds. […]
# Chain of cathepsin D (P07339 65-412, species assumed): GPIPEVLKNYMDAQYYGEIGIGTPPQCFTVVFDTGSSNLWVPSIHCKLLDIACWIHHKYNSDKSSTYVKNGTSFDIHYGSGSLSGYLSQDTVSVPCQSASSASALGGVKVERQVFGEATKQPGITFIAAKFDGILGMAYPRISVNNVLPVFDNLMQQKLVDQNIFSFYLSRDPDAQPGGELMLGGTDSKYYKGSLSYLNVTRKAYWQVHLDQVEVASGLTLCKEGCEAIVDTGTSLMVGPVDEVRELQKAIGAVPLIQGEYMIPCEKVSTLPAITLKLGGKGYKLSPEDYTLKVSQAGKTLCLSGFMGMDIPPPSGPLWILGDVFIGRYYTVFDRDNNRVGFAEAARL
# T1 sequence (G3IAK4 22-501): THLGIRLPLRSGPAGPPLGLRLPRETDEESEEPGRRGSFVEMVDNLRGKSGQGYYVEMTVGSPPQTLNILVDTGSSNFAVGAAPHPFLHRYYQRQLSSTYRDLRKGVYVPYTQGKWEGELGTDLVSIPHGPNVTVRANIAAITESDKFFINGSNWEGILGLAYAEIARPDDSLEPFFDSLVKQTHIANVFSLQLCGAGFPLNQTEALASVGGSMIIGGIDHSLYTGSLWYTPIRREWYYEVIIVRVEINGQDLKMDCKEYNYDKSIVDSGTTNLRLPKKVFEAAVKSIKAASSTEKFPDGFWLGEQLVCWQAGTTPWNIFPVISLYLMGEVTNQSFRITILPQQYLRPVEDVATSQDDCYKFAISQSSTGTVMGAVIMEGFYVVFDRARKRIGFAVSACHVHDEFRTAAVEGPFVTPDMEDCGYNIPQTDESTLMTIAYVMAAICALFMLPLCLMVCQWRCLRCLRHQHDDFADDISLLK
# Chain of memapsin 2 (Homo sapiens, UniProt P56817) (P56817 46-501): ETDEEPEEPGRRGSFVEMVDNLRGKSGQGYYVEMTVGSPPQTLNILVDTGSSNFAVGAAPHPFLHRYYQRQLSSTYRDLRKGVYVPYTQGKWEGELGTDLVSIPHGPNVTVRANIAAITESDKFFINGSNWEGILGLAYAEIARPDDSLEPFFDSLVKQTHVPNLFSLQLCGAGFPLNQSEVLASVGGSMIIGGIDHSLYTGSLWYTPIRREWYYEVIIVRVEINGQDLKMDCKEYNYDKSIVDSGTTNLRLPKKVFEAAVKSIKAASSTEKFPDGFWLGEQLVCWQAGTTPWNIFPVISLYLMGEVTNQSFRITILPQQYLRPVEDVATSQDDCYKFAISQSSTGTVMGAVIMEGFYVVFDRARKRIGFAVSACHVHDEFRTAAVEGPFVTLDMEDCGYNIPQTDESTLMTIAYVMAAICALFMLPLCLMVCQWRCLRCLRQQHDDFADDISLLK
smiles,measurement,setting,value
"Cc1csc([C@H]2CCCN2C(=O)c2cc(C(=O)N[C@@H](Cc3ccccc3)[C@H](O)[C@H]3C[C@@H](OCc4ccccc4)CN3)cc(-n3cccc3)c2)n1 [1-25, N-((1R,2S)-1-((2R,4R)-4-(benzyloxy)pyrrolidin-2-yl)-1-hydroxy-3-phenylpropan-2-yl)-3-((R)-2-(4-methylthiazol-2-yl)pyrrolidine-1-carbonyl)-5-(1H-pyrrol-1-yl)benzamide]",Ki,[1],< 250 nM
same,IC50,[2],< 500 nM
same,Ki,[3]; read-out: CathD Ki,48.8 nM
same,Ki,"[3]; substrate peptide ELDLAVEFWHDR, pH 4.1, 37 degrees C, read-out: CD Ki",< 300 nM
same,Ki,[4],624 nM
same,Ki,"[4]; substrate peptide ELDLAVEFWHDR, pH 4.1, 37 degrees C",> 500 nM
